Assay results taken from US20260262643A1, “HERBICIDAL BENZOXAZINES” (FMC CORPORATION, priority 2022, published 2026).

Assays:
blackgrass [1] = assay: Test C preemergence; format: in vivo, Alopecurus myosuroides
Summary of the method: (§1)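 Visual injury score, 0–100 (100 = complete control), taken 10 days after treatment relative to untreated controls. Pre: directed spray onto soil over sown seeds. Post: foliar spray at one- to two-leaf stage, 2–10 cm. Solvent/surfactant formulation; loam–sand soil; greenhouse.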

corn [2] = assay: Test C postemergence; format: in vivo, Zea mays; details: 10 days, 0 to 100 scale (0 no effect, 100 complete control)
Summary of the method: as §1

barnyardgrass [3] = assay: Test C preemergence; format: in vivo, Echinochloa crusgalli
Summary of the method: as §1

wheat [4] = assay: Test C preemergence; format: in vivo, Triticum aestivum
Summary of the method: as §1

ragweed [5] = assay: Test C preemergence; format: in vivo, Ambrosia artemisiifolia
Summary of the method: as §1

ryegrass, Italian [6] = assay: Test C postemergence; format: in vivo, Lolium multiflorum; details: 10 days, 0 to 100 scale (0 no effect, 100 complete control)
Summary of the method: as §1

pigweed, palmer [7] = assay: Test C postemergence; format: in vivo, Amaranthus palmeri; details: 10 days, 0 to 100 scale (0 no effect, 100 complete control)
Summary of the method: as §1

corn [8] = assay: Test C preemergence; format: in vivo, Zea mays
Summary of the method: as §1

kochia [9] = assay: Test C preemergence; format: in vivo, Bassia scoparia
Summary of the method: as §1

oat, wild [10] = assay: Test C postemergence; format: in vivo, Avena fatua; details: 10 days, 0 to 100 scale (0 no effect, 100 complete control)
Summary of the method: as §1

soybean [11] = assay: Test C postemergence; format: in vivo, Glycine max; details: 10 days, 0 to 100 scale (0 no effect, 100 complete control)
Summary of the method: as §1

kochia [12] = assay: Test C postemergence; format: in vivo, Bassia scoparia; details: 10 days, 0 to 100 scale (0 no effect, 100 complete control)
Summary of the method: as §1

oat, wild [13] = assay: Test C preemergence; format: in vivo, Avena fatua
Summary of the method: as §1

wheat [14] = assay: Test C postemergence; format: in vivo, Triticum aestivum; details: 10 days, 0 to 100 scale (0 no effect, 100 complete control)
Summary of the method: as §1

barnyardgrass [15] = assay: Test D flooded paddy test; format: in vivo, Echinochloa crus-galli; details: 250 g ai/ha, applied to paddy water, visual rating after 13 to 14 days, scale 0 to 100 (0 no effect, 100 complete control)
Summary of the method: (§2)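 At the 2-leaf stage, floodwater 3 cm deep received the test compound; that depth persisted throughout. Plants scored visually 13 to 14 days on, 0 (no effect) to 100 (complete control), dash indicating no result.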

ducksalad = assay: Test D flooded paddy test; format: in vivo, Heteranthera limosa; details: 250 g ai/ha, applied to paddy water, visual rating after 13 to 14 days, scale 0 to 100 (0 no effect, 100 complete control)
Summary of the method: as §2

blackgrass [16] = assay: Test C postemergence; format: in vivo, Alopecurus myosuroides; details: 10 days, 0 to 100 scale (0 no effect, 100 complete control)
Summary of the method: as §1

soybean [17] = assay: Test C preemergence; format: in vivo, Glycine max
Summary of the method: as §1

barnyardgrass [18] = assay: Test C postemergence; format: in vivo, Echinochloa crusgalli; details: 10 days, 0 to 100 scale (0 no effect, 100 complete control)
Summary of the method: as §1

foxtail, giant [19] = assay: Test C postemergence; format: in vivo, Setaria faberi; details: 10 days, 0 to 100 scale (0 no effect, 100 complete control)
Summary of the method: as §1

pigweed, palmer [20] = assay: Test C preemergence; format: in vivo, Amaranthus palmeri
Summary of the method: as §1

horseweed = assay: Test C postemergence; format: in vivo, Erigeron canadensis; details: 10 days, 0 to 100 scale (0 no effect, 100 complete control)
Summary of the method: as §1

sedge, umbrella = assay: Test D flooded paddy test; format: in vivo, Cyperus difformis; details: 250 g ai/ha, applied to paddy water, visual rating after 13 to 14 days, scale 0 to 100 (0 no effect, 100 complete control)
Summary of the method: as §2

ryegrass, Italian [21] = assay: Test C preemergence; format: in vivo, Lolium multiflorum
Summary of the method: as §1

foxtail, giant [22] = assay: Test C preemergence; format: in vivo, Setaria faberi
Summary of the method: as §1

rice = assay: Test D flooded paddy test; format: in vivo, Oryza sativa; details: 250 g ai/ha, applied to paddy water, visual rating after 13 to 14 days, scale 0 to 100 (0 no effect, 100 complete control)
Summary of the method: as §2

ragweed [23] = assay: Test C postemergence; format: in vivo, Ambrosia artemisiifolia; details: 10 days, 0 to 100 scale (0 no effect, 100 complete control)
Summary of the method: as §1

galium = assay: Test C postemergence; format: in vivo, Galium aparine; details: 10 days, 0 to 100 scale (0 no effect, 100 complete control)
Summary of the method: as §1

[24] = 500 g ai/ha, preemergence, 0 to 100 scale (0 no effect, 100 complete control)
[25] = Preemergence, 125 g ai/ha, 0 to 100 scale, 0 no effect, 100 complete control

How did the “Blackgrass plant response rating” value (blackgrass [1]; [24]) turn out when `CC(C)c1ncn(-c2cc(C(=O)N3CC(C(F)(F)F)Oc4c(Cl)cccc43)ccn2)n1` (single isomer, unassigned) [Compound 331] was run?
Its value is 70.

And the “Plant response rating, Blackgrass” value (blackgrass [1]; [25])?
Its value is 20.

What about the “Plant response rating, Corn” value (corn [2]; 500 g ai/ha, postemergence) of the same compound?
Its value is 40.

What about the “Plant response rating, Corn” value (corn [2]; Postemergence, 125 g ai/ha) of the same compound?
Its value is 10.

What about the “Barnyardgrass plant response rating” value (barnyardgrass [3]; [24]) of the same compound?
Its value is 0.

What about the “Plant response rating, Barnyardgrass” value (barnyardgrass [3]; [25]) of the same compound?
The value was 0.

And the “Wheat plant response rating” value (wheat [4]; [24])?
The value was 0.

And the “Plant response rating, Wheat” value (wheat [4]; [25])?
The value was 0.

What about the “Ragweed plant response rating” value (ragweed [5]; [24]) of the same compound?
Its value is 0.

And the “Plant response rating, Ragweed” value (ragweed [5]; [25])?
The value was 0.

What about the “Plant response rating, Ryegrass, Italian” value (ryegrass, Italian [6]; 500 g ai/ha, postemergence) of the same compound?
Its value is 10.

What about the “Plant response rating, Ryegrass, Italian” value (ryegrass, Italian [6]; Postemergence, 125 g ai/ha) of the same compound?
The value was 0.

And the “Plant response rating, Pigweed, Palmer” value (pigweed, palmer [7]; 500 g ai/ha, postemergence)?
Its value is 50.

What about the “Plant response rating, Pigweed, Palmer” value (pigweed, palmer [7]; Postemergence, 125 g ai/ha) of the same compound?
The value was 20.

What about the “Corn plant response rating” value (corn [8]; [24]) of the same compound?
The value was 0.

And the “Plant response rating, Corn” value (corn [8]; [25])?
The value was 0.

And the “Kochia plant response rating” value (kochia [9]; [24])?
Its value is 20.

And the “Plant response rating, Kochia” value (kochia [9]; [25])?
Its value is 0.

And the “Plant response rating, Oat, Wild” value (oat, wild [10]; 500 g ai/ha, postemergence)?
The value was 0.

What about the “Plant response rating, Oat, Wild” value (oat, wild [10]; Postemergence, 125 g ai/ha) of the same compound?
The value was 0.

What about the “Plant response rating, Soybean” value (soybean [11]; 500 g ai/ha, postemergence) of the same compound?
The value was 100.

What about the “Plant response rating, Soybean” value (soybean [11]; Postemergence, 125 g ai/ha) of the same compound?
The value was 90.

What about the “Plant response rating, Kochia” value (kochia [12]; 500 g ai/ha, postemergence) of the same compound?
The value was 70.

And the “Plant response rating, Kochia” value (kochia [12]; Postemergence, 125 g ai/ha)?
Its value is 40.

What about the “Oat, Wild plant response rating” value (oat, wild [13]; [24]) of the same compound?
The value was 20.

And the “Plant response rating, Oat, Wild” value (oat, wild [13]; [25])?
Its value is 0.

What about the “Plant response rating, Wheat” value (wheat [14]; 500 g ai/ha, postemergence) of the same compound?
Its value is 20.

What about the “Plant response rating, Wheat” value (wheat [14]; Postemergence, 125 g ai/ha) of the same compound?
The value was 10.

What about the “Plant response rating, Barnyardgrass (Flood)” value (barnyardgrass [15]) of the same compound?
The value was 0.

What about the “Plant response rating, Ducksalad (Flood)” value (ducksalad) of the same compound?
The value was 0.

What about the “Plant response rating, Blackgrass” value (blackgrass [16]; 500 g ai/ha, postemergence) of the same compound?
Its value is 20.

What about the “Plant response rating, Blackgrass” value (blackgrass [16]; Postemergence, 125 g ai/ha) of the same compound?
Its value is 0.

And the “Soybean plant response rating” value (soybean [17]; [24])?
Its value is 0.

What about the “Plant response rating, Soybean” value (soybean [17]; [25]) of the same compound?
Its value is 0.

What about the “Plant response rating, Barnyardgrass” value (barnyardgrass [18]; 500 g ai/ha, postemergence) of the same compound?
Its value is 30.

What about the “Plant response rating, Barnyardgrass” value (barnyardgrass [18]; Postemergence, 125 g ai/ha) of the same compound?
Its value is 10.

And the “Plant response rating, Foxtail, Giant” value (foxtail, giant [19]; 500 g ai/ha, postemergence)?
Its value is 40.

What about the “Plant response rating, Foxtail, Giant” value (foxtail, giant [19]; Postemergence, 125 g ai/ha) of the same compound?
Its value is 30.

What about the “Pigweed, Palmer plant response rating” value (pigweed, palmer [20]; [24]) of the same compound?
The value was 100.

What about the “Plant response rating, Pigweed, Palmer” value (pigweed, palmer [20]; [25]) of the same compound?
Its value is 30.

And the “Plant response rating, Horseweed” value (horseweed; 500 g ai/ha, postemergence)?
The value was 0.

And the “Plant response rating, Horseweed” value (horseweed; Postemergence, 125 g ai/ha)?
The value was 0.

What about the “Plant response rating, Sedge, Umbrella (Flood)” value (sedge, umbrella) of the same compound?
Its value is 0.

And the “Ryegrass, Italian plant response rating” value (ryegrass, Italian [21]; [24])?
The value was 60.

What about the “Plant response rating, Ryegrass, Italian” value (ryegrass, Italian [21]; [25]) of the same compound?
The value was 60.

What about the “Foxtail, Giant plant response rating” value (foxtail, giant [22]; [24]) of the same compound?
The value was 60.

And the “Plant response rating, Foxtail, Giant” value (foxtail, giant [22]; [25])?
Its value is 20.

What about the “Plant response rating, Rice (Flood)” value (rice) of the same compound?
Its value is 0.

And the “Plant response rating, Ragweed” value (ragweed [23]; 500 g ai/ha, postemergence)?
The value was 0.

And the “Plant response rating, Ragweed” value (ragweed [23]; Postemergence, 125 g ai/ha)?
The value was 0.

And the “Plant response rating, Galium” value (galium; 500 g ai/ha, postemergence)?
Its value is 50.

And the “Plant response rating, Galium” value (galium; Postemergence, 125 g ai/ha)?
The value was 50.
